Source: ChEMBL document CHEMBL5241102, “Drugs for the treatment of glaucoma: Targets, structure-activity relationships and clinical research” (Eur J Med Chem, 2021)
“And” between values parts separate entries of the source, which are not always exact repeats. Equal entries are not always repeated. Blank lines part the entries; values can stand above or below the molecule they belong to.

Legend:
[1] = Induction of disruption of actin stress fibers in human TM1 cells by actin stress fiber assay; type: functional, cell-based
[2] = Induction of disruption of actin stress fibers in PTM cells by actin stress fiber assay; type: functional, cell-based, Sus scrofa; conditions: ptm cell
[3] = target: Autotaxin (Homo sapiens, UniProt Q13822); assay: Inhibition of ATX (unknown origin)
[4] = Half life in rabbit; type: ADME, Oryctolagus cuniculus; conditions: in vivo
[5] = species: Mus musculus; assay: Antiglaucoma activity in mouse eye assessed as increase in lymphatic drainage relative to control; type: functional
[6] = system: Rhesus monkey; assay: Antiglaucoma activity in ocular […] monkey assessed as reduction in intraocular pressure; type: functional, organism-based; conditions: Macaca mulatta
[7] = target: Prostaglandin E2 receptor EP2 subtype (Homo sapiens, UniProt P43116); assay: Binding affinity to EP2 (unknown origin) assessed as inhibition constant
Prostaglandin E2 receptor EP2 subtype, sequence (P43116 whole entry): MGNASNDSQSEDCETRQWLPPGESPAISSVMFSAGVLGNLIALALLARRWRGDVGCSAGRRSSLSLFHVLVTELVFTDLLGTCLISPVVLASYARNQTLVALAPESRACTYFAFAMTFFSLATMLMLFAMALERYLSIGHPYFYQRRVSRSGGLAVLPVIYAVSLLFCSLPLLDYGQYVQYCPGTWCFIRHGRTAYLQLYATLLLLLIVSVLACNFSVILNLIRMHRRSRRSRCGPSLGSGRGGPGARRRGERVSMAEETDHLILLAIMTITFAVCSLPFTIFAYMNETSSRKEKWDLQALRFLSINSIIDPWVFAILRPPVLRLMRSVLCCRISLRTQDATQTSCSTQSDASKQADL

[8] = Half life in human; type: ADME
[9] = target: Prostaglandin F2-alpha receptor (Homo sapiens, UniProt P43088); assay: Agonist activity at FP receptor (unknown origin)
Prostaglandin F2-alpha receptor, sequence (P43088 whole entry): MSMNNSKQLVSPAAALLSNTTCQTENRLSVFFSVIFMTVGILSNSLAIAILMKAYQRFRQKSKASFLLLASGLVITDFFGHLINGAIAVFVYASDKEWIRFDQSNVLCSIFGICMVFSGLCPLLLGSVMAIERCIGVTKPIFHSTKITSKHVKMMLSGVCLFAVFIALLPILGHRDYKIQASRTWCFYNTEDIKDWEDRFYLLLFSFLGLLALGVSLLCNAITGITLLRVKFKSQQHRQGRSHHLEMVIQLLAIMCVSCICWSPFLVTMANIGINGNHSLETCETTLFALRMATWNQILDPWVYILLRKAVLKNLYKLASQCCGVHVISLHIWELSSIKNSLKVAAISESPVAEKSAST

[10] = target: T1, Prostaglandin E2 receptor EP3 subtype (Homo sapiens, UniProt P43115); assay: Agonist activity at EP3 (unknown origin)
T1 sequence (P43115 whole entry): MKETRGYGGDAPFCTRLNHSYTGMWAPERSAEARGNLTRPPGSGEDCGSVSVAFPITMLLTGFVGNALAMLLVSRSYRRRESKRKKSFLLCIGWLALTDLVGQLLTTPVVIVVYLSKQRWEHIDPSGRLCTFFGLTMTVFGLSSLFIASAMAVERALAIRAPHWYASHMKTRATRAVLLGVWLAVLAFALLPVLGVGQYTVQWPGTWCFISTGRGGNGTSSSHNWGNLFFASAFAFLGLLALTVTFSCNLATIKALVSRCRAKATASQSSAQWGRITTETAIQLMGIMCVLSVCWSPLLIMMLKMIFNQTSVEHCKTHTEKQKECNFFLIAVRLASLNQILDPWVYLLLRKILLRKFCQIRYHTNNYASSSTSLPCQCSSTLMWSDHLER

IC50 [1]: 16 nM
IC50 [2]: 79 nM
Structure (SMILES): Cc1ccc(C(=O)OCc2ccc([C@@H](CN)C(=O)Nc3ccc4cnccc4c3)cc2)c(C)c1

IC50 [2]: 22 nM and 3 nM
Structure (SMILES): NC[C@@H](C(=O)Nc1ccc2cnccc2c1)c1ccc(CO)cc1

IC50 [3]: 110 nM
Structure (SMILES): CCCCCn1c(N2CCC[C@H](C(=O)O)C2)cc(=O)n2cc(-c3ccc(Cl)cc3)nc12

half-life [4]: 108 min
Structure (SMILES): O=C(CCC/C=C\C[C@@H]1[C@@H](CC[C@@H](O)CCc2ccccc2)[C@H](O)C[C@@H]1O)OCCCCO[N+](=O)[O-] [LATANOPROSTENE BUNOD]

Structure (SMILES): CC(C)OC(=O)CCC/C=C\C[C@@H]1[C@@H](CC[C@@H](O)CCc2ccccc2)[C@H](O)C[C@@H]1O [LATANOPROST]
Activity [5]: 400%

EC50 [6]: 8.3 nM
Ki [7]: 3.6 nM
half-life [8]: 30 min
Structure (SMILES): O=C(O)CNc1cccc(CN(Cc2ccc(-n3cccn3)cc2)S(=O)(=O)c2cccnc2)n1 [OMIDENEPAG]

EC50 [9]: 22.3 nM
EC50 [10]: 28.6 nM
Structure (SMILES): O=C(O)CCC[C@H]1CC[C@@H]2[C@@H](/C=C/[C@@H](O)COc3cc(F)ccc3F)[C@H](O)C[C@@H]2OC1 [ONO-AG-367]

EC50 [9]: 3030 nM
EC50 [10]: 10 nM
Structure (SMILES): CC(C)OC(=O)CCC[C@H]1CC[C@@H]2[C@@H](/C=C/[C@@H](O)COc3cc(F)ccc3F)[C@H](O)C[C@@H]2OC1 [SEPETAPROST]
